In test [1] the test system is RKOp27 colon adenocarcinoma cells arrested by expression of ectopic p27Kip1. Nature of the test: Alamar Blue cell viability assay on RKO p27 cells arrested by Ponasterone A induced p27Kip1 (cell cycle specific mode of action). The format is cell-based. The note with it: Homo sapiens, 72 hours, cells arrested by p27Kip1 induced with 10 μM Ponasterone A. In outline:
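RKOp27 cells, 16000 per well in DMEM/10% FCS, arrested by p27Kip1 induced with 10 μM Ponasterone A, then dosed 24 h later and incubated 72 h at 37° C, quadruplicates. Alamar Blue fluorescence (544/590 nm) gave viability as % of untreated cells, set against proliferating cells grown without inducer.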
In general terms: Alamar Blue is a resazurin reagent that responds to reducing activity.

Test [2] relates to RKO (RKOp27) human colon adenocarcinoma cells. The test can be described thus: Alamar Blue cell viability assay, anti-proliferative/cytotoxic activity on proliferating (uninduced) RKO p27 cells. The format is cell-based. The settings on record: RKOp27, 72 h, proliferating cells without inducer Ponasterone A. In outline: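 RKOp27 subclones (4000 cells/well) were seeded 24 h before treatment with semi-log compound dilutions in DMEM/10% FCS, in quadruplicate, for 72 h at 37° C. Alamar Blue fluorescence (544 nm excitation/590 nm emission) was normalised to untreated cells (100%), and IC50 values were taken from concentration-effect curves.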

Nine molecules from patent US7741488B2, “Tetrahydropyridothiophenes as antiproliferative agents for the treatment of cancer” (4SC AG, priority 2005, dated 2010) can be followed below.

Broadly, the IC50 is the concentration that gives 50% inhibition.

Some results are limits rather than exact numbers.

As to `COc1ccccc1CCC(=O)Nc1sc2c(c1C#N)CCN(C(=O)OCc1cncn1C)C2` [Example 123, 3-Cyano-2-[3-(2-methoxy-phenyl)-propanoylamino]-4,7-dihydro-5H-thieno[2,3-c]pyridine-6-carboxylic acid 3-methyl-3H-imidazol-4-ylmethyl ester], the IC50 in test [1] is more than 100 µM; in test [2] it was not above 0.3 µM.

Regarding `CCOC(=O)N1CCc2c(sc(NC(=O)CC(C)c3ccccc3OC)c2C#N)C1` (racemic) [Example 49, 3-Cyano-2-[(RS)-3-(2-methoxy-phenyl)-butanoylamino]-4,7-dihydro-5H-thieno[2,3-c]pyridine-6-carboxylic acid ethyl ester], the IC50 was more than 100 µM in test [1] and not above 0.3 µM in test [2].

For `CCOC(=O)N1CCc2c(sc(NC(=O)C3CC3c3cc(C)ccc3OC)c2C#N)C1` (stereo not drawn) [Example 54, 3-Cyano-2-({1-[2-(2-methoxy-5-methyl-phenyl)-cyclopropyl]-methanoyl}-amino)-4,7-dihydro-5H-thieno[2,3-c]pyridine-6-carboxylic acid ethyl ester], the IC50 in test [1] was more than 100 µM; in test [2], 0.3 to 2 µM.

As for `COc1ccc(C)cc1CCC(=O)Nc1sc2c(c1C#N)CCN(C(=O)OCCn1ccnc1)C2` [Example 132, 3-Cyano-2-[3-(2-methoxy-5-methyl-phenyl)-propanoylamino]-4,7-dihydro-5H-thieno[2,3-c]pyridine-6-carboxylic acid 2-imidazol-1-yl-ethyl ester], the IC50 was not below 40 µM in test [1] and not above 0.3 µM in test [2].

With `CCOc1ccccc1CCC(=O)Nc1sc2c(c1C#N)CCN(C(=O)OCCOC)C2` [Example 40, 3-Cyano-2-[3-(2-ethoxy-phenyl)-propanoylamino]-4,7-dihydro-5H-thieno[2,3-c]pyridine-6-carboxylic acid 2-methoxy-ethyl ester], the IC50 in test [1] is more than 100 µM; in test [2], not above 0.3 µM.

As for `CCOC(=O)N1CCc2c(sc(NC(=O)CCc3cc(OC)ccc3OC)c2C#N)C1` [Example 7, 3-Cyano-2-[3-(2,5-dimethoxy-phenyl)-propanoylamino]-4,7-dihydro-5H-thieno[2,3-c]pyridine-6-carboxylic acid ethyl ester], the IC50 in test [1] was more than 100 µM; in test [2] it was 0.3 to 2 µM.

With `COc1ccccc1CCC(=O)Nc1sc2c(c1C#N)CCN(C(=O)OCc1nccn1C)C2` [Example 122, 3-Cyano-2-[3-(2-methoxy-phenyl)-propanoylamino]-4,7-dihydro-5H-thieno[2,3-c]pyridine-6-carboxylic acid 1-methyl-1H-imidazol-2-ylmethyl ester], the IC50 is not below 10 µM in test [1] and not above 0.3 µM in test [2].

For the molecule `CCOc1ccccc1CCC(=O)Nc1sc2c(c1C#N)CCN(C(=O)OCCc1ccccn1)C2` [Example 44, 3-Cyano-2-[3-(2-ethoxy-phenyl)-propanoylamino]-4,7-dihydro-5H-thieno[2,3-c]pyridine-6-carboxylic acid 2-pyridin-2-yl-ethyl ester], the IC50 in test [1] is more than 100 µM; in test [2], not above 0.3 µM.

Regarding `COc1ccc(C)cc1CCC(=O)Nc1sc2c(c1C#N)CCN(C(=O)OCc1cncn1C)C2` [Example 130, 3-Cyano-2-[3-(2-methoxy-5-methyl-phenyl)-propanoylamino]-4,7-dihydro-5H-thieno[2,3-c]pyridine-6-carboxylic acid 3-methyl-3H-imidazol-4-ylmethyl ester], the IC50 in test [1] is not below 10 µM; in test [2] it was 0.3 to 2 µM.
